Laboratory results reported in the Kinase Knowledgebase extract (Sharma et al. 2016).

Columns and labels:
[1] = target: ROCK2 (human) (UniProt O75116); assay: Enzyme Assay
[2] = target: CDK2 (human) (UniProt P24941); assay: Enzyme Assay

Chain of ROCK2 (human) (O75116 whole entry, looked up): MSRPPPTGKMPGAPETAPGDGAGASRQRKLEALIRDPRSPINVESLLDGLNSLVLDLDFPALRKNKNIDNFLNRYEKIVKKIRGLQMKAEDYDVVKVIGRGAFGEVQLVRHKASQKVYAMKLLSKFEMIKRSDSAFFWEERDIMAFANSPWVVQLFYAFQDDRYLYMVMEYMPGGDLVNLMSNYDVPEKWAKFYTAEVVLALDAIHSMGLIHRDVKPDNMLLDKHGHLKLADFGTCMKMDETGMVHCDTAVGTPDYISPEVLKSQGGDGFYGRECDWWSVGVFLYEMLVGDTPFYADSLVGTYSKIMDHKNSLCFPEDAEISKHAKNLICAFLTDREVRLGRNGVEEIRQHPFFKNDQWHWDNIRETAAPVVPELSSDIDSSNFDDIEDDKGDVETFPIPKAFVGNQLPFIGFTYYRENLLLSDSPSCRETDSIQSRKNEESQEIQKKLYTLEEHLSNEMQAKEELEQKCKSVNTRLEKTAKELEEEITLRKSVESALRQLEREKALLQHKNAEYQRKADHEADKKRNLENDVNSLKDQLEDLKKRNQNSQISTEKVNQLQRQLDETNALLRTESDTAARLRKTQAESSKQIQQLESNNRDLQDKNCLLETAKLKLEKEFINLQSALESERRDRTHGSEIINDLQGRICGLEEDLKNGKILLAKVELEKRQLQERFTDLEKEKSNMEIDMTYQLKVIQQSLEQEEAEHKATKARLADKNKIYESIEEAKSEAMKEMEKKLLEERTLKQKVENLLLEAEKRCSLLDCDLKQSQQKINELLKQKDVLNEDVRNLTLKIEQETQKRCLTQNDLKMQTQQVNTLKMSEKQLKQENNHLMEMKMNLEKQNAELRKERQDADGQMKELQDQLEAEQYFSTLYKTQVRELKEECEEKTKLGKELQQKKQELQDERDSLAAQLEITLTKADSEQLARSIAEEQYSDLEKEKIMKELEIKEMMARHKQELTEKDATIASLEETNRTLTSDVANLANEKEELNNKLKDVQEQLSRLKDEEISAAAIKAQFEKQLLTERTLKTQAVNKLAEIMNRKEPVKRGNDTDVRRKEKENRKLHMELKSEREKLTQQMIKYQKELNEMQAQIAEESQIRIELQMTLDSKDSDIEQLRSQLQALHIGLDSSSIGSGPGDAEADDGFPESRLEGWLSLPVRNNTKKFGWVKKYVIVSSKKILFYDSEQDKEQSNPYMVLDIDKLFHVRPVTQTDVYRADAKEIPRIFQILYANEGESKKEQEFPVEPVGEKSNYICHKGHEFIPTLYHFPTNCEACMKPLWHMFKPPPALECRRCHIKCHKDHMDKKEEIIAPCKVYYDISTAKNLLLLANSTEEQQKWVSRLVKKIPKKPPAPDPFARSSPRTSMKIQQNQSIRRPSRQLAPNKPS

| Structure (SMILES) | Ki [1] [nM] | Ki [2] [nM] |
| --- | --- | --- |
| NC(=O)c1ccc2c(ccn2-c2cccc(Cl)c2)c1 | 2510 | – |
| COCCNc1cc(-c2c[nH]c3ncccc23)cc(Cl)n1 | 5.01 | 251 |
| CCOC(=O)c1c(NC(=O)C2C(C)(C)C2(C)C)sc2cnccc12 | – | 1000 |
| CCCCOc1cc(-c2ccncc2)cc2[nH]nc(N)c12 | 126 | 1000 |
| O=C(Nc1n[nH]c2ccc(-c3cn(Cc4ccccc4)nn3)cc12)c1cc(F)ccc1F | > 5010 | 25.1 |
| FC(F)(F)c1ccccc1CNc1nccc(-c2c[nH]c3ncccc23)n1 | – | 5.01 |
| Cc1cc(Nc2cc(N3CCN(C)CC3)nc(Sc3ccc(NC(=O)C4CC4)cc3)n2)[nH]n1 | > 3980 | – |
| NC(=O)c1ccc(-c2nc(-c3ccc4c(c3)OCO4)c(-c3ccccn3)[nH]2)cc1 | > 3980 | – |
| NC(=O)c1ccc(-c2ccncc2)cc1NCc1cccc(F)c1 | 5010 | 3160 |
| Clc1cc(-c2c[nH]c3ncccc23)nc(NC2CCCCC2)n1 | 126 | 200 |
| O=C1NC(=O)C(c2c[nH]c3ccccc23)=C1c1nc(N2CCNCC2)nc2ccccc12 | > 3980 | – |
| Cc1c(C=O)c(O)n2c(nc3ccccc32)c1C#N | > 7940 | – |
| O=c1cc(-c2cccc(F)c2)[nH]c2c(-c3ccc(F)cc3)cnn12 | > 7940 | – |
| CCCn1c(=O)c2[nH]c(-c3cnn(Cc4cccc(C(F)(F)F)c4)c3)nc2n(CC)c1=O | – | 5010 |
| O=C1CN=C(c2cccc(Cl)c2)c2c(sc3c2CCCC3)N1 | – | 7940 |
| Nc1ncnc2c1c(-c1cnc3[nH]ccc3c1)nn2C1CCCC1 | 39.8 | – |
| COc1cc2c(cc1F)C(c1ccccc1Cl)=Nc1c(n[nH]c1C)N2 | > 7940 | – |
| NC(=O)c1cc(-c2ccnc(N)n2)[nH]c1-c1ccc(Cl)cc1Cl | 316 | – |
| Nc1noc2cccc(-c3cccc(O)c3)c12 | 251 | – |
| Cc1cccc(NC(=O)Nc2ccc3c(c2)CCc2sc4ncnc(N)c4c2-3)c1 | 79.4 | – |
| Fc1ccc2c(c1)-c1n[nH]cc1CS2 | – | 20000 |
| Cc1ccccc1-c1c(-c2ccc3[nH]nc(C)c3c2)nnn1Cc1ccccc1 | – | 3.98 |
| Clc1cc(NC2CCCCC2)nc(-c2c[nH]c3ncccc23)n1 | > 316 | – |

| Structure (SMILES) | Ki [1] [nM] | Ki [2] [nM] |
| --- | --- | --- |
| NC(=O)c1ccccc1Nc1nc(Nc2ccccc2)ncc1C(F)(F)F | 501 | – |
| Oc1ccc(-c2nc(-c3ccc(F)cc3)c(-c3ccncc3)[nH]2)cc1 | > 3980 | – |
| Cn1cncc1C(OCc1c(-c2ccc(OC(F)(F)F)cc2)cc(C#N)c(=O)n1C)c1ccc(C#N)cc1 (stereo not given) | > 7940 | – |
| CS(=O)(=O)Nc1ccccc1-c1ccc2c(c1)Nc1ccccc1NC2=O | – | 6310 |
| Cc1cc(=O)n2[nH]cc(C(=O)NCc3ccccc3)c2n1 | 2510 | – |
| O=C(O)c1ccccc1Nc1ccnc(NCc2cccc(O)c2)n1 | > 7940 | – |
| Cc1sc2[nH]c(=O)n3nc(-c4ccncc4)nc3c2c1C | 3980 | – |
| Cn1cc(-c2ccccc2)c2nc(-c3ccncc3)cc(=O)n21 | 3160 | – |
| c1ccc(Cn2nnc(-c3ccc4[nH]ncc4c3)c2-c2ccccc2)cc1 | – | 63.1 |
| O=C(Nc1ccccc1)Nc1nccs1 | – | 20000 |
| CCCCC(=O)Nc1cc(-c2c[nH]c3ncccc23)cc(Cl)n1 | 158 | – |
| CS(=O)(=O)N(Cc1ccc2[nH]c(=O)c3cccn3c2c1)C1CC1 | > 7940 | – |
| NNc1cc(N2CCOCC2)nc(OCCc2ccccn2)n1 | > 5010 | – |
| NC1CCCCC1Nc1nccc(-c2c[nH]c3ncccc23)n1 (stereo not given) | – | 12.6 |
| CN(c1ccccc1-c1ccc2c(c1)Nc1ccccc1NC2=O)S(C)(=O)=O | – | 2000 |
| NC1CCCCC1Nc1nccc(Nc2ccccc2C(=O)O)n1 (stereo not given) | > 7940 | – |
| O=c1cc(-c2ccc(F)cc2)[nH]c2c(-c3ccc(F)cc3)cnn12 | > 7940 | – |
| CC(C)(CO)CNc1nccc(-c2c(-c3ccc(F)cc3)nc3c(CC4CC4)nccn23)n1 | > 7940 | – |
| CCOC(=O)c1c[nH]n2c(=O)cc(-c3ccncc3)nc12 | 2000 | – |
| CCn1c(-c2nonc2N)nc2cnc(Oc3cccc(NC(=O)c4ccc(OCCN5CCOCC5)cc4)c3)cc21 | – | 794 |
| O=C(Nc1cccc(C(F)(F)F)n1)Nc1ccnc2ccc(F)cc12 | > 3980 | – |
| c1ccc(-c2n[nH]cc2-c2ccncc2)cc1 | – | 12600 |
